In patent US20240408132A1, “HYPOHALOUS ACIDS FOR TREATING INFLAMMATORY DISEASES AND INHIBITING GROWTH OF MALIGNANCIES” (BT Manufacturing, LLC, priority 2020, published 2024):
Where two headings read alike, the source gives them in different places.

How the values were obtained:
[1] = molecular target: T1, IL-6 (Homo sapiens, UniProt P05231); test: ELISA of IL-6 binding to anti-IL6 antibody after exposure to HOCl or HOBr; conditions: IL-6 exposed for 5 minutes at concentrations >2 ppm, halogen quenched before incubation
T1 sequence (P05231 30-212): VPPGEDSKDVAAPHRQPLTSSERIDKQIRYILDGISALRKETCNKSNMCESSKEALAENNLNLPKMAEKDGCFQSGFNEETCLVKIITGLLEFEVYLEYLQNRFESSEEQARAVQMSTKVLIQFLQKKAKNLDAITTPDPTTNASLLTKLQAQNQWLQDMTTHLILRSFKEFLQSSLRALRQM
Description: An ELISA assay (Fisher Scientific) was used to detect binding changes between IL6 and anti-IL6 antibody binding in the presence of HOCl or HOBr. Anti-human IL6 antibody was immobilized to a polystyrene 96 well plate as the capture antibody. IL-6 was exposed to various concentrations of HOCl or HOBr for 5 minutes. The active halogen was quenched before incubation with the coated plate wells. A second anti-human IL6 antibody was introduced to the coated wells and served as a detector to an enzyme-mediated chromophore indicator system.
The inhibition of IL-6 reactivity by exposure to HOCl is illustrated in FIG. 1.

[2] = tested on: mouse; conditions: in vivo
Text: (§1) Experimental exposures of rodents were done according to OECD method 423 for acute oral toxicity assessment, OECD method 434 for acute dermal toxicity and OECD method 433 for acute inhalation.

[3] = molecular target: T1, IL-6; test: IL-6 bioassay (Promega), luminescence in receptor-expressing human cells; assay type: cell-based
Description: An IL-6 bioassay (Promega) was used to determine the effect of HOCl on IL-6 binding to human cells triggering a change in luminescence. IL-6 was incubated with various concentrations of HOCl and quenched, before addition to the receptor-expressing human cells.
Binding of the cytokine was measured by luminescence.

[4] = tested on: mouse; conditions: in vivo; remark: listed apart in the source
Text: as §1

[5] = tested on: human subjects; test: Safety of human volunteers exposed to microaerosolized HOCl via inhalation; assay type: in vivo; conditions: dense microaerosols for 2-5 minutes, 400 episodes
Description: The safety of exposure of human subjects to microaerosolized pure stable HOCl via the respiratory route was evaluated.
Human volunteers were exposed to dense microaerosols of HOCl for periods of 2-5 minutes and submitted subjective reports of the outcomes of these experiences. Data on a total of 400 such episodes were collected under medical supervision.

## OBr [HOBr, Hypobromous acid]
[1]
  binding of IL-6 to the capture antibody: undetectable

## OCl [HOCl, hypochlorous acid]
[2]
  Result/Behavior: No change
  Result/Histopathology: No
[3]; IL-6 exposed to HOCl
  capacity of the cytokine to initiate transmembrane signaling: complete inhibition
[3]; all concentrations tested, IL-6 incubated with HOCl and quenched before addition to cells
  luminescence of HOCl-treated IL-6: significantly reduced luminescence
[4]
  Result/Behavior: No change
  Result/Histopathology: No
[5]
  serious adverse effects: No serious adverse effects
[5]; disappeared upon cessation of exposure
  minor complaints (nose irritation, slight impact on ease of deep breathing): approximately 3%
[1]
  binding of IL-6 to the capture antibody: no detectable binding
